Source: ChEMBL document CHEMBL1144332, “1,2,4-Benzothiadiazine derivatives as alpha1 and 5-HT1A receptor ligands” (Bioorg Med Chem Lett, 2005)

Key:
[1] = target: T1, 5-hydroxytryptamine receptor 1A (Homo sapiens) (UniProt P08908); experiment: The maximal stimulation of [35S]GTP-gamma-S, binding (Emax) against the 5-hydroxytryptamine 1A receptor; assay type: functional
T1 sequence (whole entry): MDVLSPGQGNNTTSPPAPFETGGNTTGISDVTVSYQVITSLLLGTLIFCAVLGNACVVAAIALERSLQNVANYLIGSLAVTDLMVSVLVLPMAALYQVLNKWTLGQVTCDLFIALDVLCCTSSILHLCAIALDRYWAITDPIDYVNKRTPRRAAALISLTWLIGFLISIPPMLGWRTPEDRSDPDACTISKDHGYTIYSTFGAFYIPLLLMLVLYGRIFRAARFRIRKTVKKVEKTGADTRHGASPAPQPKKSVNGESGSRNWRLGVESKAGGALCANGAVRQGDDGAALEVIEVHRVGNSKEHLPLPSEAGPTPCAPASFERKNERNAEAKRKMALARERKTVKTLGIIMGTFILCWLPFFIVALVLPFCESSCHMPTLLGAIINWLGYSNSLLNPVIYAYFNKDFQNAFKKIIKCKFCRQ

[2] = target: T1, 5-hydroxytryptamine receptor 1A (Homo sapiens); experiment: Potency against the 5-hydroxytryptamine 1A receptor determined by using [35S]GTP-gamma-S, binding; assay type: functional
[3] = target: T2, 5-hydroxytryptamine receptor 1A (Homo sapiens, UniProt P08908); experiment: Inhibitory constant value against the 5-hydroxytryptamine 1A receptor
T2 sequence (P08908 whole entry): T1 sequence (whole entry)

[4] = target: T3, Alpha-1B adrenergic receptor (Rattus norvegicus) (UniProt P15823); experiment: Antagonist potency against the alpha-1B adrenergic receptor determined in isolated rat spleen; assay type: functional, tissue-based
T3 sequence (whole entry): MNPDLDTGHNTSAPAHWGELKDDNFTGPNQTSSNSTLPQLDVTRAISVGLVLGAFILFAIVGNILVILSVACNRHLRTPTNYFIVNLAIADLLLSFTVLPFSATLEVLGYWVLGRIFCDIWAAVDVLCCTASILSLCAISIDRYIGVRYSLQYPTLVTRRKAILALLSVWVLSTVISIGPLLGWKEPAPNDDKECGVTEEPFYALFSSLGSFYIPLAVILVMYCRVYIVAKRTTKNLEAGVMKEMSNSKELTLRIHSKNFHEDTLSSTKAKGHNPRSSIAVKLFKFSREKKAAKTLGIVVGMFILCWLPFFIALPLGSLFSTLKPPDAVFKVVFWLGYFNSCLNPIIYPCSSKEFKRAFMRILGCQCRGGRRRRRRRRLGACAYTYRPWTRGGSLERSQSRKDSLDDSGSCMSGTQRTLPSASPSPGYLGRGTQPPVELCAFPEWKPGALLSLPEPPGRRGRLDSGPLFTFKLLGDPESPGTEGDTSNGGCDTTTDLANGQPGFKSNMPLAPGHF

[5] = target: Alpha adrenergic receptor 1A and 1B (Rattus norvegicus) (UniProt P15823+P43140); experiment: Selectivity towards alpha 1B and alpha 1A adrenergic receptors; assay type: protein assay
[6] = target: Alpha adrenergic receptor 1A and 1D (Rattus norvegicus) (UniProt P23944+P43140); experiment: Selectivity towards alpha 1D and alpha 1A adrenergic receptors; assay type: protein assay
Rattus norvegicus = organism: Rattus norvegicus; experiment: Selectivity towards alpha 1D and alpha 1B adrenergic receptors
[7] = target: T4, Alpha-1A adrenergic receptor (Rattus norvegicus) (UniProt P43140); experiment: Antagonist potency against the alpha-1A adrenergic receptor was determined in isolated rat prostatic vas deferens; assay type: functional, tissue-based
T4 sequence (whole entry): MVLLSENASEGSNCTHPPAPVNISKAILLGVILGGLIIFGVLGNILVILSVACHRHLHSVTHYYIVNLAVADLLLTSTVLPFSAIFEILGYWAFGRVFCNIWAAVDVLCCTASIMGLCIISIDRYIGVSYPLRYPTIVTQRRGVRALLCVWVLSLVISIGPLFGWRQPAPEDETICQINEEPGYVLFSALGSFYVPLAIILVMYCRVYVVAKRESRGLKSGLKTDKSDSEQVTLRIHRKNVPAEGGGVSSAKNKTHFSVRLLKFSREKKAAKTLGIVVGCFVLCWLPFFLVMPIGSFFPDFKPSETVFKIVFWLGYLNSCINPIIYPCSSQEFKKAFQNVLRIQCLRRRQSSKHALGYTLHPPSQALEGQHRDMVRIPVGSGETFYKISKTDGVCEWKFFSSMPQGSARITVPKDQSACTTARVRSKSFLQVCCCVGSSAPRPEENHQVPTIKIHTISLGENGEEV

[8] = target: T5, Alpha-1D adrenergic receptor (Rattus norvegicus) (UniProt P23944); experiment: Antagonist potency against the alpha-1D adrenergic receptor was determined in isolated rat thoracic aorta; assay type: functional, tissue-based
T5 sequence (whole entry): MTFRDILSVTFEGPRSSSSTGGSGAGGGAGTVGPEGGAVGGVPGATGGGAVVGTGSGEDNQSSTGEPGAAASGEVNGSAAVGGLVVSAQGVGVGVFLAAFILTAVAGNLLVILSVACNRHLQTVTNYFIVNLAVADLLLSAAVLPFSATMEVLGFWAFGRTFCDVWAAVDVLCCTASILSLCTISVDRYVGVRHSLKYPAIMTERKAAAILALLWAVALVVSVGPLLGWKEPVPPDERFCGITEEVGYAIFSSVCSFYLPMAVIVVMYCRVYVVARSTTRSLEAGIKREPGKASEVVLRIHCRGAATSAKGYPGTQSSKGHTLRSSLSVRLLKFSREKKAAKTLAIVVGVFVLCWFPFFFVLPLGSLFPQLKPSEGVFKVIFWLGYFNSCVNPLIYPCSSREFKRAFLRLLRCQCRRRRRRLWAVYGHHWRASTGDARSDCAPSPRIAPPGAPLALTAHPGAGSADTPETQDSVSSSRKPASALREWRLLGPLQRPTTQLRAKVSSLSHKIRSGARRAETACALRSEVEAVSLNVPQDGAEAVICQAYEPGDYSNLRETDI

[9] = Selectivity towards 5-hydroxytryptamine 1A and alpha 1D adrenergic receptors was determined
[10] = target: T2, 5-hydroxytryptamine receptor 1A; experiment: Inhibitory constant value against 5-hydroxytryptamine 1A receptor

SMILES | Emax [1] | pD2 [2] | Ki [3] [nM] | pKb [4] | Selectivity [5] | Selectivity [6] | Selectivity (Rattus norvegicus) | pKb [7] | pKb [8] | Selectivity [9] | Ki [10] [nM]
COc1ccccc1N1CCN(CC2=NS(=O)(=O)c3ccccc3N2)CC1 |  |  |  | 5.46 | > 3 | > 389 | 135 | < 5 | 7.59 | < 0.03 | > 1000
COc1ccccc1N1CCN(CC2=NS(=O)(=O)c3ccc(C)cc3N2)CC1 |  |  | 107 | 6.05 | > 11 | > 3 | 0.28 | < 5 | 5.5 |  | 
COc1ccccc1N1CCN(CC2=NS(=O)(=O)c3ccc(Cl)cc3N2)CC1 |  |  | 46.8 | 6.17 | 8 | 295 | 38 | 5.28 | 7.75 | 0.38 | 
COc1ccccc1N1CCN(CC2Nc3cc(C)ccc3S(=O)(=O)N2)CC1 (configuration not stated) |  |  |  | 6.24 | 2 | 0.95 | 0.55 | 6 | 5.98 | < 10 | 

The next lines start with results.

Emax [1] | pD2 [2] | Ki [3] [nM] | pKb [4] | Selectivity [5] | Selectivity [6] | Selectivity (Rattus norvegicus) | pKb [7] | pKb [8] | Selectivity [9] | SMILES | Ki [10] [nM]
26 | 9.27 | 1.26 | 7.48 |  |  |  |  |  |  | COc1ccccc1N1CCN(CCN2C(=O)CC3(CCCC3)CC2=O)CC1 [BMY-7378] | 
23 | 6.92 | 9.12 | 5.09 | 1 | 1 | 1 | 5.05 | 5 | 1100 | COc1ccccc1N1CCN(CC2Nc3cc(Cl)ccc3S(=O)(=O)N2)CC1 (configuration not stated) | 
 |  | 16.6 | 5.97 | 1.5 | 0.35 | 0.23 | 5.81 | 5.34 | 275 | COc1ccccc1N1CCN(CC2Nc3ccccc3S(=O)(=O)N2)CC1 (configuration not stated) | 
